Source: patent US7846936B2, “Combinations for the treatment of diseases involving cell proliferation, migration or apoptosis of myeloma cells or angiogenesis” (Boehringer Ingelheim International GmbH, priority 2003, dated 2010)
pIC50: −log10 of the molar value.

What was measured:
[1] = clinically tested, also in conjunction with chemotherapy; cited from earlier work
[2] = tested on: SKOV-3 cells (human ovarian carcinoma); assay: SKOV-3 xenograft combination experiment; type: in vivo, nude mice (NMRI nu/nu); conditions: SKOV-3 tumours in nude mice, 15 mg/kg daily per os, day 31
Procedure: The following experiment was performed in order to investigate the effect of a combination therapy with suboptimal doses of an antagonist of at least one receptor selected from VEGFR 1 to 3, PDGFRα and β, FGFR1, 2 and 3, EGFR, HER2, IGF1R, HGFR or c-Kit, which is further an antagonist of a src tyrosine kinase family member, namely the di-chloride salt of (Z)-3-(1-(4-(N-((4-methyl-piperazin-1-yl)-methylcarbonyl)-N-methyl-amino)-phenylamino)-1-phenyl-methylene]-6-methoxycarbonyl-2-indolinone (compound referred to as C12(T)), which is the di-chloride salt of above exemplified compound (T), and a dual antagonist of the epidermal growth factor (EGF) receptor and of the human epidermal growth factor of type 2 (HE type 2) receptor, namely the compound 4-[(3-chloro-4-fluorophenyl)amino]-6-{[4-(N,N-dimethylamino)-1-oxo-2-buten-1-yl]amino}-7-((S)-tetrahydrofuran-3-yloxy)-quinazoline, (compound referred to as EGFR/HER2 inh., and described in WO 02/50043 as exemplified compound of Example 1(10)), on the reduction of tumour growth, in comparison to the mono-therapies at the same doses. […]
Daily per os treatment was initially performed for 31 days. […] The calculated treated tumour to control tumour (T/C) ratio at this time point was 35% for the group treated with 15 mg/kg EGFR/HER2 inh., 32% for the group treated with 50 mg/kg C12(T), and 13% for the group treated with the combination. […]

oral bioavailability = type: in vivo; conditions: mice
[3] = tested on: IL-6 secretion by BMSC cells; assay: IL-6 secretion by bone marrow stromal cells (Table II); type: cell-based
Lyn = Lyn (Homo sapiens, UniProt P07948); assay: kinase inhibition panel (Table I); type: biochemical
Chain of Lyn (P07948 whole entry, species assumed): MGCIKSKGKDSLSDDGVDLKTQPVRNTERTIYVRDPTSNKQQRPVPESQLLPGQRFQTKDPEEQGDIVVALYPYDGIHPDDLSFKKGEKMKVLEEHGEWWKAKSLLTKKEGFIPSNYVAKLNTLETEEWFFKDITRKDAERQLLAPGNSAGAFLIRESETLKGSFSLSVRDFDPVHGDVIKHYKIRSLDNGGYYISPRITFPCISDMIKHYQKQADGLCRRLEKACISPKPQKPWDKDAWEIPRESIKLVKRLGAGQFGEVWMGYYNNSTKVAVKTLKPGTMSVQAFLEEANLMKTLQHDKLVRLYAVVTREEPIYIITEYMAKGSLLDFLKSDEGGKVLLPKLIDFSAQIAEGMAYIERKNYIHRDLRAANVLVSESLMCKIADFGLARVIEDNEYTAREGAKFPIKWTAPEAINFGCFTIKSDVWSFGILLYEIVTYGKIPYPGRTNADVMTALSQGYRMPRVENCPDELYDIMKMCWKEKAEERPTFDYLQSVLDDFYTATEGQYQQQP

[4] = tested on: IL-6 secretion by BMSC mono-cultures; assay: IL-6 secretion of BMSC mono-cultures (Table III); type: cell-based
Source text: (§1) For comparison, the inhibition effect on BMSC mono-cultures (native) and, as control, the level of secretion of U266 mono-cultures, were also investigated.

[5] = tested on: IL-6 secretion in U-266 + BMSC co-cultures; assay: IL-6 secretion in transwell and contact co-cultures of U-266 myeloma cells and BMSC cells (Table III); type: cell-based
Source text: as §1

[6] = tested on: t(14;16) MM1.s myeloma cells; assay: apoptosis of myeloma cells; type: cell-based
CDK2 = CDK2 (Homo sapiens, UniProt P24941); assay: kinase inhibition panel (Table I); type: biochemical
[7] = tested on: FaDu tumours (human squamous carcinoma cells); assay: in vivo xenograft experiment, subcutaneous FaDu tumours; conditions: nude mice, 100 mg/kg orally twice weekly
Procedure: By increasing the dose to 200 mg/kg orally twice weekly an even better anti-tumour effect is expected.

[8] = tested on: IL-6 secretion by BMSC cells; assay: IL-6 secretion by bone marrow stromal cells (Table II); type: cell-based; remark: listed apart in the source
Source text: For comparison, the inhibition effect with inhibition of anti-bFGF (+anti-bFGF), anti-VEGF (+anti-VEGF) and a combination of anti-bFGF and anti-VEGF (+anti-VEGF+anti-bFGF) were also investigated.

cell lines with t(4;14) = assay: apoptosis on cell lines with t(4;14); type: cell-based; conditions: in vitro

For `Cc1cc(C)c(/C=C2\C(=O)Nc3ccccc32)[nH]1` [SU5416], which “side effect in clinical testing” value [1] is on record?
Its value is “thromboembolic events”.

Which “treated tumour to control tumour (T/C) ratio” value [2] does the source give for `CN(C)CC=CC(=O)Nc1cc2c(Nc3ccc(F)c(Cl)c3)ncnc2cc1O[C@H]1CCOC1` [EGFR/HER2 inh., 4-[(3-chloro-4-fluorophenyl)amino]-6-{[4-(N,N-dimethylamino)-1-oxo-2-buten-1-yl]amino}-7-((S)-tetrahydrofuran-3-yloxy)-quinazoline] here?
Its value is 35%.

With `CCS(=O)(=O)O.COC(=O)c1ccc2c(c1)NC(=O)/C2=C(\Nc1ccc(N(C)C(=O)CN2CCN(C)CC2)cc1)c1ccccc1` [MES(T), monoethanesulfonate salt of 3-Z-[1-(4-(N-((4-methyl-piperazin-1-yl)-methylcarbonyl)-N-methyl-amino)-anilino)-1-phenyl-methylene]-6-methoxycarbonyl-2-indolinone] as the compound, how does the oral bioavailability (oral bioavailability) read?
Its oral bioavailability is “orally bioavailable”.

And the “IL-6 secretion by BMSC cells” value ([3]; +VEGF, MES(T) 10 nM)?
Its value is 122.3.

And the “IL-6 secretion by BMSC cells” value ([3]; +VEGF, MES(T) 50 nM)?
The value was 130.7.

What about the “IL-6 secretion by BMSC cells” value ([3]; +VEGF, MES(T) 125 nM) of the same compound?
The value was 141.0.

And the “IL-6 secretion by BMSC cells” value ([3]; +VEGF, MES(T) 250 nM)?
Its value is 65.5.

And the “IL-6 secretion by BMSC cells” value ([3]; +VEGF, MES(T) 500 nM)?
Its value is 14.8.

What about the “IL-6 secretion by BMSC cells” value ([3]; +anti-VEGF + anti-bFGF, MES(T) 10 nM) of the same compound?
The value was 68.1.

And the “IL-6 secretion by BMSC cells” value ([3]; +anti-VEGF + anti-bFGF, MES(T) 50 nM)?
The value was 63.4.

What about the “IL-6 secretion by BMSC cells” value ([3]; +anti-VEGF + anti-bFGF, MES(T) 125 nM) of the same compound?
Its value is 86.1.

And the “IL-6 secretion by BMSC cells” value ([3]; +anti-VEGF, MES(T) 10 nM)?
Its value is 148.6.

And the “IL-6 secretion by BMSC cells” value ([3]; +anti-VEGF, MES(T) 50 nM)?
The value was 155.2.

What about the “IL-6 secretion by BMSC cells” value ([3]; +anti-VEGF, MES(T) 125 nM) of the same compound?
The value was 166.7.

What about the “IL-6 secretion by BMSC cells” value ([3]; +anti-VEGF, MES(T) 250 nM) of the same compound?
The value was 89.4.

And the “IL-6 secretion by BMSC cells” value ([3]; +anti-VEGF, MES(T) 500 nM)?
The value was 16.2.

What about the “IL-6 secretion by BMSC cells” value ([3]; +anti-bFGF, MES(T) 10 nM) of the same compound?
The value was 68.9.

And the “IL-6 secretion by BMSC cells” value ([3]; +anti-bFGF, MES(T) 500 nM)?
The value was 20.2.

And the “IL-6 secretion by BMSC cells” value ([3]; +bFGF, MES(T) 10 nM)?
Its value is 150.5.

What about the “IL-6 secretion by BMSC cells” value ([3]; +bFGF, MES(T) 50 nM) of the same compound?
Its value is 179.7.

What about the “IL-6 secretion by BMSC cells” value ([3]; +bFGF, MES(T) 125 nM) of the same compound?
Its value is 91.2.

What about the “IL-6 secretion by BMSC cells” value ([3]; +bFGF, MES(T) 250 nM) of the same compound?
Its value is 76.9.

And the “IL-6 secretion by BMSC cells” value ([3]; +bFGF, MES(T) 500 nM)?
Its value is 43.4.

What about the “IL-6 secretion by BMSC cells” value ([3]; native, MES(T) 10 nM) of the same compound?
Its value is 130.2.

And the “IL-6 secretion by BMSC cells” value ([3]; native, MES(T) 50 nM)?
The value was 170.4.

And the “IL-6 secretion by BMSC cells” value ([3]; native, MES(T) 125 nM)?
The value was 97.5.

And the “IL-6 secretion by BMSC cells” value ([3]; native, MES(T) 250 nM)?
The value was 76.5.

What about the “IL-6 secretion by BMSC cells” value ([3]; native, MES(T) 500 nM) of the same compound?
Its value is 39.6.

And the pIC50 (Lyn)?
The pIC50 was 6.71.

What about the “IL-6 secretion, BMSC mono-cultures” value ([4]; MES(T) 50 nM) of the same compound?
The value was 213.4.

What about the “IL-6 secretion, BMSC mono-cultures” value ([4]; MES(T) 125 nM) of the same compound?
The value was 192.1.

What about the “IL-6 secretion, BMSC mono-cultures” value ([4]; MES(T) 250 nM) of the same compound?
Its value is 69.9.

And the “IL-6 secretion, BMSC mono-cultures” value ([4]; MES(T) 500 nM)?
The value was 38.6.

What about the “IL-6 secretion, Contact U-266 + BMSC co-cultures” value ([5]; MES(T) 125 nM) of the same compound?
The value was 259.6.

What about the “IL-6 secretion, Contact U-266 + BMSC co-cultures” value ([5]; MES(T) 250 nM) of the same compound?
The value was 199.4.

What about the “IL-6 secretion, Contact U-266 + BMSC co-cultures” value ([5]; MES(T) 500 nM) of the same compound?
The value was 114.7.

And the “effect on IL-6 secretion of BMSC cultures stimulated by myeloma cells” value ([5]; transwell and contact co-cultures)?
The value was “decrease to its basal (native) value the level of IL-6 secretion”.

And the “IL-6 secretion, Transwell U-266 + BMSC co-cultures” value ([5]; MES(T) 50 nM)?
Its value is 354.5.

And the “IL-6 secretion, Transwell U-266 + BMSC co-cultures” value ([5]; MES(T) 125 nM)?
The value was 297.6.

And the “IL-6 secretion, Transwell U-266 + BMSC co-cultures” value ([5]; MES(T) 250 nM)?
Its value is 231.1.

What about the “IL-6 secretion, Transwell U-266 + BMSC co-cultures” value ([5]; MES(T) 500 nM) of the same compound?
The value was 123.9.

And the “effect on dexamethasone-induced apoptosis” value ([6]; combined with dexamethasone)?
The value was “enhances the apoptosis induced by dexamethasone”.

And the “apoptosis of myeloma cells” value ([6]; t(14;16) MM1.s myeloma cells, MES(T) alone)?
Its value is “pro-apoptotic effects”.

What about the pIC50 (CDK2) of the same compound?
The pIC50 was under 5.00.

And the “T/C (Tumour/Control) value” [7]?
Its value is 31%.

And the “IL-6 secretion by BMSC cells” value ([8]; +anti-VEGF + anti-bFGF, MES(T) 250 nM)?
Its value is 45.0.

What about the “IL-6 secretion by BMSC cells” value ([8]; +anti-VEGF + anti-bFGF, MES(T) 500 nM) of the same compound?
Its value is 13.5.

And the “IL-6 secretion by BMSC cells” value ([8]; +anti-bFGF, MES(T) 50 nM)?
Its value is 81.3.

And the “IL-6 secretion by BMSC cells” value ([8]; +anti-bFGF, MES(T) 125 nM)?
The value was 42.4.

What about the “IL-6 secretion by BMSC cells” value ([8]; +anti-bFGF, MES(T) 250 nM) of the same compound?
Its value is 33.0.

What about the “apoptosis on cell lines with t(4;14)” value (cell lines with t(4;14)) of the same compound?
The value was “Direct induction of apoptosis”.
